Experimental data taken from patent US20250114466A1, “ANTIFOLATE LINKER-DRUGS AND ANTIBODY-DRUG CONJUGATES” (BYONDIS B.V., priority 2021, published 2025).

Key:
Format in all cases: cell-based
Human tumor cell lines = test: In vitro cell viability assays, free antifolate drugs, overall comparison; conditions: for antifolate activity compared with talotrexin: Tables 1a-1d
Description: Human tumor cell lines SK-BR-3, SW-620, A-549, BT-474, Jurkat Clone E6-1, AU-565, and SK-OV-3 were obtained from American Type Culture Collection (Rockville, MD, USA). FaDu, BxPC-3, HeLa, MV4-11, and RAJI cell lines were obtained from Deutsche Sammlung von Mikroorganismen und Zellkulturen ([…], Germany). Jurkat NucLight Red cells were obtained from Essen BioScience Inc. (Ann Arbor, MI, USA). SK-BR-3 and SK-OV-3 cells were cultured in McCoys 5A medium (Lonza; Walkersville, MD, USA) supplemented with 10% v/w Fetal Bovine Serum (FBS), Heat-inactivated (HI) (Gibco-Life Technologies; Carlsbad, CA) and 80 U/mL Pen/Strep (Gibco-Life Technologies), at 37° C. in a humidified incubator under 5% CO2 atmosphere. SW-620 cells were similarly maintained in RPMI 1640 medium (Lonza), containing 10% v/w FBS HI and 80 U/mL Pen/Strep. A-549 cells were similarly maintained in F-12K Nutrient Mixture (1×) (Gibco-Life Technologies) media supplemented with 80 U/mL Pen/Strep and 5% v/w FBS, which was Qualified (Q) (Gibco-Life Technologies). BT-474 and AU-565 cells were similarly maintained in RPMI 1640 medium (Lonza), containing 10% v/w FBS, which was Qualified (Q) (Gibco-Life Technologies), and 80 U/mL Pen/Strep. Jurkat Clone E6-1, BxPC-3, HeLa, MV4-11, and RAJI cells were similarly maintained in RPMI 1640 medium (Lonza), containing 10% v/w FBS HI and 80 U/mL Pen/Strep. Jurkat NucLight Red cells were similarly maintained in RPMI 1640 medium (Lonza), containing 10% v/w FBS HI, 80 U/mL Pen/Strep and 0.5 μg/mL Puromycin (Gibco-Life Technologies). FaDu cells were cultured in EMEM medium (Lonza) supplemented with 10% v/w FBS HI (Gibco-Life Technologies), 1× GlutaMAX (Gibco-Life Technologies), and 80 U/mL Pen/Strep (Gibco-Life Technologies), at 37° C. in a humidified incubator under 5% CO2 atmosphere.
Cells in complete growth medium were plated in 96-well plates (90 μL/well) and incubated at 37° C., 5% CO2 at the following cell densities: 6500 SK-BR-3, 4000 SW-620, 2500 A-549, 10000 BT-474, 3000 Jurkat Clone E6-1, 5000 AU-565, 1250 FaDu, 1250 BxPC-3, 1000 HeLa, 7500 MV4-11, 1000 RAJI, 3000 Jurkat NucLight Red, and 4000 SK-OV-3 cells per well. After an overnight incubation, 10 serial log 10 dilutions of the free drugs were made in DMSO (Sigma-Aldrich). These free drug dose-response curves were 10-times further diluted in complete growth medium. For the ADCs according to the invention 10 serial log 10 dilutions were made in complete growth medium. 10 μL of a composition comprising a free drug or an ADC according to the invention was added to the assay plate (final DMSO content for free drugs was 1%). […] Cell viability was assessed after 6 days using a luminescent assay kit (CellTiter-Glo™ (CTG), Promega Corporation) according to the manufacturer's instructions. Percentage cell survival was calculated by dividing the measured luminescence for each free drug or ADC according to the concentration with the average mean of untreated cells (1% or 0.1% DMSO control (for free drugs) or 100% complete growth medium (for ADCs)) multiplied by 100.
Curves were fitted by non-linear regression using the sigmoidal dose-response equation with variable slope (four parameters) using curve-fitting software (GraphPad Prism, version 9.4.0 for Windows, GraphPad, San Diego, CA or Electronic Laboratory Notebook (ELN) add-in BioAssay, version 19.1.0.0218, Perkin Elmer, Waltham, MA). Relative IC50 values were calculated as the concentration that gives a response halfway between bottom and top of the curve, when using a 4-parameter logistic fit. Data were reported as mean IC50 value of at least one experiment performed in duplicate.

SK-BR-3 cells = test: In vitro cell viability assay (CellTiter-Glo, 6 days), SK-BR-3; conditions: Homo sapiens, SK-BR-3, 144 h, free antifolate drug, Table 1a
Description: (§1) FaDu, BxPC-3, HeLa, MV4-11, and RAJI cell lines were obtained from Deutsche Sammlung von Mikroorganismen und Zellkulturen ([…], Germany). Jurkat NucLight Red cells were obtained from Essen BioScience Inc. (Ann Arbor, MI, USA). SK-BR-3 and SK-OV-3 cells were cultured in McCoys 5A medium (Lonza; Walkersville, MD, USA) supplemented with 10% v/w Fetal Bovine Serum (FBS), Heat-inactivated (HI) (Gibco-Life Technologies; Carlsbad, CA) and 80 U/mL Pen/Strep (Gibco-Life Technologies), at 37° C. in a humidified incubator under 5% CO2 atmosphere. SW-620 cells were similarly maintained in RPMI 1640 medium (Lonza), containing 10% v/w FBS HI and 80 U/mL Pen/Strep. […]
(§2) After an overnight incubation, 10 serial log 10 dilutions of the free drugs were made in DMSO (Sigma-Aldrich). […] Cell viability was assessed after 6 days using a luminescent assay kit (CellTiter-Glo™ (CTG), Promega Corporation) according to the manufacturer's instructions. Percentage cell survival was calculated by dividing the measured luminescence for each free drug or ADC according to the concentration with the average mean of untreated cells (1% or 0.1% DMSO control (for free drugs) or 100% complete growth medium (for ADCs)) multiplied by 100. […]

SW-620 cells = test: In vitro cell viability assay (CellTiter-Glo, 6 days), SW-620; conditions: Homo sapiens, SW-620, 144 h, free antifolate drug, Table 1a
Description: as §1, §2

A-549 cells = test: In vitro cell viability assay (CellTiter-Glo, 6 days), A-549; conditions: Homo sapiens, A549, 144 h, free antifolate drug, Table 1a
Description: Human tumor cell lines SK-BR-3, SW-620, A-549, BT-474, Jurkat Clone E6-1, AU-565, and SK-OV-3 were obtained from American Type Culture Collection (Rockville, MD, USA). FaDu, BxPC-3, HeLa, MV4-11, and RAJI cell lines were obtained from Deutsche Sammlung von Mikroorganismen und Zellkulturen ([…], Germany). Jurkat NucLight Red cells were obtained from Essen BioScience Inc. (Ann Arbor, MI, USA). […]
Cells in complete growth medium were plated in 96-well plates (90 μL/well) and incubated at 37° C., 5% CO2 at the following cell densities: 6500 SK-BR-3, 4000 SW-620, 2500 A-549, 10000 BT-474, 3000 Jurkat Clone E6-1, 5000 AU-565, 1250 FaDu, 1250 BxPC-3, 1000 HeLa, 7500 MV4-11, 1000 RAJI, 3000 Jurkat NucLight Red, and 4000 SK-OV-3 cells per well. […] Cell viability was assessed after 6 days using a luminescent assay kit (CellTiter-Glo™ (CTG), Promega Corporation) according to the manufacturer's instructions. Percentage cell survival was calculated by dividing the measured luminescence for each free drug or ADC according to the concentration with the average mean of untreated cells (1% or 0.1% DMSO control (for free drugs) or 100% complete growth medium (for ADCs)) multiplied by 100. […]

Row | Compound | antifolate activity compared with talotrexin (Human tumor cell lines) | further results
1 | Nc1ccc(C(=O)NCCC[C@H](NC(=O)c2ccc(NCc3ccc4nc(N)nc(N)c4c3Cl)cc2)C(=O)O)c(-c2nnn[nH]2)c1 [XT110, (S)-5-(4-Amino-2-(1H-tetrazol-5-yl)benzamido)-2-(4-(((2,4-diamino-5-chloroquinazolin-6-yl)methyl)amino)benzamido)pentanoic acid] |  | antifolate activity compared with XX35 (Human tumor cell lines; 5-chloroquinazoline-2,4-diamine instead of pteridine-2,4-diamine): strongly increased the antifolate activity
2 | CN(Cc1cnc2nc(N)nc(N)c2n1)c1ccc(C(=O)N[C@@H](CCCNC(=O)c2ccc(N)cc2)C(=O)O)cc1 [XX12, (S)-5-(4-aminobenzamido)-2-(4-(((2,4-diaminopteridin-6-yl)methyl)(methyl)amino)benzamido)pentanoic acid] | less active than talotrexin | 
3 | Nc1nc(N)c2nc(CNc3ccc(C(=O)N[C@@H](CCCNC(=O)c4ccccc4C(=O)O)C(=O)O)cc3)cnc2n1 [Talotrexin] |  | IC50 (SK-BR-3 cells): 1.83 nM; IC50 (SW-620 cells): 1.74 nM; IC50 (A-549 cells): 1.7 nM
4 | Nc1ccc(C(=O)NCCC[C@H](NC(=O)c2ccc(CCc3ccc4nc(N)nc(N)c4c3)cc2)C(=O)O)cc1 [XJ4, (S)-5-(4-Aminobenzamido)-2-(4-(2-(2,4-diaminoquinazolin-6-yl)ethyl)benzamido)pentanoic acid] | less active than talotrexin | 
5 | [N-]=[N+]=Nc1ccc(C(=O)NCCC[C@H](NC(=O)c2ccc(CCc3cnc4nc(N)nc(N)c4n3)cc2)C(=O)O)cc1 [XX5, (S)-5-(4-Azidobenzamido)-2-(4-(2-(2,4-diaminopteridin-6-yl)ethyl)benzamido) pentanoic acid] | less active than talotrexin | 
6 | Nc1ccc(C(=O)NCCC[C@H](NC(=O)c2ccc(CCc3cnc4nc(N)nc(N)c4n3)cc2)C(=O)O)cc1 [XX7, (S)-5-(4-Aminobenzamido)-2-(4-(2-(2,4-diaminopteridin-6-yl)ethyl)benzamido) pentanoic acid] | less active than talotrexin | 
7 | Nc1ccc(C(=O)NCCC[C@H](NC(=O)c2ccc(NCc3cnc4nc(N)nc(N)c4n3)cc2)C(=O)O)cc1 [XT35, (S)-5-(4-Aminobenzamido)-2-(4-(((2,4-diaminopteridin-6-yl)methyl)amino)benzamido) pentanoic acid] | less active than talotrexin | 
